Laboratory results published in ChEMBL document CHEMBL4831554, “Diverse, Potent, and Efficacious Inhibitors That Target the EED Subunit of the Polycomb Repressive Complex 2 Methyltransferase” (J Med Chem, 2021).

How the values were obtained:
[1] = Bioavailability in rat at 1 mg/kg, po or 0.5 mg/kg, iv; assay type: ADME, organism-based; settings: in vivo
[2] = Intrinsic clearance in human hepatocytes assessed per million cells at 1 uM measured upto 30 mins by HPLC analysis; assay type: ADME, cell-based, Hepatocyte; settings: read-out: CLH
[3] = Lipophilicity, logD of the compound in Octanol/phosphate buffer at pH 7.4 after 30 mins by shake-flask method; assay type: physicochemical
[4] = Intrinsic clearance in human liver microsomes at 1 uM preincubated with NADPH for 5 mins followed by compound addition and measured upto 30 mins by LC-MS/MS analysis; assay type: ADME, Microsome; settings: read-out: CLH
[5] = Clearance in rat at 1 mg/kg, po or 0.5 mg/kg, iv; assay type: ADME, organism-based; settings: in vivo
[6] = Apparent permeability of compound in human Caco-2 cells; assay type: ADME, cell-based
[7] = Volume of distribution at steady state in rat at 1 mg/kg, po or 0.5 mg/kg, iv; assay type: ADME, organism-based; settings: in vivo, read-out: Vdss

Structure (SMILES) | logD at 0.5 h [3] | microsomal CLint at 1 µM [4] [µL/min/mg] | also measured
Cc1ncccc1-c1cnc(NCc2c(F)ccc3c2CCO3)n2cnnc12 | 2.5 | 15 | bioavailability [1]: 74%; hepatocyte CLint at 1 µM [2]: 2.6 µL/min/1e6 cells; clearance [5]: 19 mL/min/kg; Papp [6]: 38.7 10^-6 cm/s; Vd [7]: 3.7 L/kg
Cc1ncccc1-c1cnc(NCc2c(F)ccc3c2CCO3)c2nn(CC#N)c(=O)n12 | 2.2 | 151 | 
O=C1Cc2ccccc2CN1c1cnc(NCc2c(F)ccc3c2CCO3)n2cnnc12 | 2.7 | 16 | 
O=C1Oc2ccccc2CN1c1cnc(NCc2c(F)ccc3c2CCO3)n2cnnc12 | 2.7 | 24 | 
O=C1c2ccccc2CN1c1cnc(NCc2c(F)ccc3c2CCO3)n2cnnc12 | 2.7 | 13 | hepatocyte CLint at 1 µM [2]: 2.7 µL/min/1e6 cells
CN(c1cn(C)cn1)c1cnc(NCc2c(F)ccc3c2CCO3)n2cnnc12 | 1.6 | 5.7 | 
CNC(=O)c1ccc(-c2cnc(NCc3c(F)ccc4c3CCO4)c3cn[nH]c(=O)c23)c(C)n1 | 2.9 | 23 | bioavailability [1]: 53%; hepatocyte CLint at 1 µM [2]: 3 µL/min/1e6 cells; clearance [5]: 24 mL/min/kg; Papp ([6]; read-out: Papp): 54.1 ×10⁻⁶ cm/s; Vd [7]: 2.7 L/kg
CN(C)Cc1ccc(C(=O)Nc2cnc(NCc3c(F)ccc4c3CCO4)n3cnnc23)cc1 | 1.8 | 13 | 
Cc1nccn1-c1cnc(NCc2c(F)ccc3c2CCO3)c2cn[nH]c(=O)c12 | 2.1 | 8 | 
Cc1nc(C(=O)N(C)C)ccc1-c1cnc(NCc2c(F)ccc3c2CCO3)c2cn[nH]c(=O)c12 | 2.1 | 19 | bioavailability [1]: 22%; hepatocyte CLint at 1 µM [2]: < 1.3 µL/min/1e6 cells; clearance [5]: 54 mL/min/kg; Papp ([6]; read-out: Papp): 1.7 ×10⁻⁶ cm/s; Vd [7]: 1.9 L/kg
CNC(=O)c1ncc(-c2cnc(NCc3c(F)ccc4c3CCO4)c3cn[nH]c(=O)c23)n1C | 2.5 | 24 | 
O=C1CCCN1c1cnc(NCc2c(F)ccc3c2CCO3)c2cn[nH]c(=O)c12 | 1.8 | 23 | 
O=C1CCCN1c1cnc(NCc2c(F)ccc3c2CCO3)n2cnnc12 | 1.3 | < 3 | 
CN(C)C(=O)c1cc(-c2cnc(NCc3c(F)ccc4c3CCO4)c3cn[nH]c(=O)c23)n(C)n1 | 2.1 | 21 | 
CN(c1ccncc1)c1cnc(NCc2c(F)ccc3c2CCO3)n2cnnc12 | 1.4 | 5.2 | 
CN(c1cnn(C)c1)c1cnc(NCc2c(F)ccc3c2CCO3)n2cnnc12 | 2.2 | 8.9 | 
Cc1ncc(-c2cnc(NCc3c(F)ccc4c3CCO4)c3cn[nH]c(=O)c23)n1C | 1.9 | 10 | 
Cn1nccc1-c1cnc(NCc2c(F)ccc3c2CCO3)c2cn[nH]c(=O)c12 | 2.6 | 14 | 
COc1ccccc1C(=O)Nc1cnc(NCc2c(F)ccc3c2CCO3)n2cnnc12 | 3.1 | 20 | 
CN(c1ccccc1)c1cnc(NCc2c(F)ccc3c2CCO3)n2cnnc12 | 3.6 | 55 | 
O=C(Nc1cnc(NCc2c(F)ccc3c2CCO3)n2cnnc12)c1ccccc1 | 3 | 10 | 
O=C1CC2(CC2)CN1c1cnc(NCc2c(F)ccc3c2CCO3)n2cnnc12 | 1.9 | < 3 | bioavailability [1]: 68%; hepatocyte CLint at 1 µM [2]: 3.5 µL/min/1e6 cells; clearance [5]: 23 mL/min/kg; Vd [7]: 1.4 L/kg
CN(C)Cc1ccc2c(c1)CN(c1cnc(NCc3c(F)ccc4c3CCO4)c3cn[nH]c(=O)c13)C2=O | 2.2 | 32 | 
Fc1ccc2c(c1CNc1ncc(Nc3ccccc3)c3nncn13)CCO2 | 3.3 | 20 | 
Cc1cc(-c2cnc(NCc3c(F)ccc4c3CCO4)c3cn[nH]c(=O)c23)n(C)n1 | 3 | 24 | 

Structure (SMILES) | logD at 0.5 h [3] | microsomal CLint at 1 µM [4] [µL/min/mg] | also measured
Fc1ccc2c(c1CNc1ncc(Oc3ccccc3)c3nncn13)CCO2 | 3.5 | 18 | 
CN(c1ccn(C)n1)c1cnc(NCc2c(F)ccc3c2CCO3)n2cnnc12 | 1.8 | 11 | bioavailability [1]: 67%; hepatocyte CLint at 1 µM [2]: < 1 µL/min/1e6 cells; clearance [5]: 29 mL/min/kg; Vd [7]: 3 L/kg
C[C@H]1CC(=O)N(c2cnc(NCc3c(F)ccc4c3CCO4)n3cnnc23)C1 | 1.8 | < 3 | 
CN(c1ncco1)c1cnc(NCc2c(F)ccc3c2CCO3)n2cnnc12 | 2.1 | 11 | bioavailability [1]: 61%; hepatocyte CLint at 1 µM [2]: 1.4 µL/min/1e6 cells; clearance [5]: 29 mL/min/kg; Vd [7]: 3.1 L/kg
Cc1ncccc1-c1cnc(NCc2c(F)ccc3c2CCO3)c2cn[nH]c(=O)c12 | 3 | 41 | hepatocyte CLint at 1 µM [2]: 4.6 µL/min/1e6 cells
Cn1cc(-c2cnc(NCc3c(F)ccc4c3CCO4)c3cn[nH]c(=O)c23)cn1 | 2.7 | 21 | 
Cc1nc(CN(C)C)ccc1-c1cnc(NCc2c(F)ccc3c2CCO3)c2cn[nH]c(=O)c12 | 2 | 13 | Papp ([6]; read-out: Papp): < 0.6 ×10⁻⁶ cm/s
Cc1ncccc1-c1cnc(NCc2c(F)ccc3c2CCO3)c2n[nH]c(=O)n12 | 2.5 | 8 | 
CN(c1cccnc1)c1cnc(NCc2c(F)ccc3c2CCO3)n2cnnc12 | 2.6 | 80 | 
CNC(=O)c1cc(-c2cnc(NCc3c(F)ccc4c3CCO4)c3cn[nH]c(=O)c23)n(C)n1 | 2.1 | < 3 | 
O=C1c2cnccc2CN1c1cnc(NCc2c(F)ccc3c2CCO3)n2cnnc12 | 1.6 | 5 | 
CN(C)Cc1ccc2c(c1)CN(c1cnc(NCc3c(F)ccc4c3CCO4)n3cnnc13)C2=O | 1.6 | 19 | 
O=C(Nc1ccccc1)c1cnc(NCc2c(F)ccc3c2CCO3)n2cnnc12 | 4.1 | 14 | 
Cc1nn(C)cc1-c1cnc(NCc2c(F)ccc3c2CCO3)c2cn[nH]c(=O)c12 | 2.8 | 27 | 
Cc1ncccc1-c1cnc(NCc2c(F)ccc3c2CCO3)n2c(=O)[nH]nc12 | 3 | 36 | 
Cc1nc(CO)ccc1-c1cnc(NCc2c(F)ccc3c2CCO3)c2cn[nH]c(=O)c12 | 2.4 | 11 | 
O=C1c2ccc(OCCN3CCCC3)cc2CN1c1cnc(NCc2c(F)ccc3c2CCO3)n2cnnc12 | 1.6 | 18 | clearance [5]: 35 mL/min/kg; Papp ([6]; read-out: Papp): < 0.6 ×10⁻⁶ cm/s; Vd [7]: 6.5 L/kg
CN(c1ccn(C)n1)c1cnc(NCc2c(F)ccc3c2CCO3)c2cn[nH]c(=O)c12 | 2.4 | 62 | 
CC(=O)N1CCC(c2cnc(NCc3c(F)ccc4c3CCO4)c3cn[nH]c(=O)c23)CC1 | 2.9 | 207 | 
C[C@@H]1CC(=O)N(c2cnc(NCc3c(F)ccc4c3CCO4)n3cnnc23)C1 | 1.8 | < 3 | 
CC1(C)CC(=O)N(c2cnc(NCc3c(F)ccc4c3CCO4)n3cnnc23)C1 | 2 | 16 | 
O=C(Nc1cnc(NCc2c(F)ccc3c2CCO3)n2cnnc12)c1cccnc1 | 2 | < 3 | 
Cc1ncccc1-c1cnc(NCc2c(F)ccc3c2CCO3)c2ncc(=O)[nH]c12 | 2.8 | 21 | 
COCCC(=O)Nc1cnc(NCc2c(F)ccc3c2CCO3)n2cnnc12 | 1.4 | < 3 | 
CN(C(=O)c1ccccc1)c1cnc(NCc2c(F)ccc3c2CCO3)n2cnnc12 | 2.4 | > 300 | 
